Results reported in patent publication US20050026899A1, “Metabolite” (priority 2003, published 2005).

Experiments:
Parameters in all cases: species or system Mice
[1] = molecular target: T1, dopamine D1 receptor (Mus musculus, UniProt Q61616); assay: binding affinity for dopamine D1 receptor; conditions: tested as the dihydrochloride salt; read-out: binding affinity for dopamine D1 receptor (K1)
T1 construct: from tissue
Description: (§1) An assessment of dopamine antagonism was made in rodent models. The methods and procedures used can be found in J. Med. Chem., 44 (3), 372-389, 2001 and are incorporated herein by reference. […] It is this combination of serotonin and dopamine receptor antagonism, with higher relative 5-HT2 to D2 receptor affinity that indicates the compound of Formula I as a potent atypical antipsychotic. J. Goldstein, Quetiapine Fumarate (Seroquel): a new atypical antipsychotic, 35(3) Drugs of Today 193-210 (1999). […] Low potency at the D2 receptor is considered advantageous since it a characteristic shared with Clozapine.

[2] = molecular target: T2, dopamine D2 receptor (Mus musculus, UniProt P61168); assay: binding affinity for dopamine D2 receptor
T2 construct: serotonin (5-HT2) receptors relative to dopamine (D2) receptors in the brain; from tissue; host or cells: brain (rodent)
T2 sequence (P61168 whole entry): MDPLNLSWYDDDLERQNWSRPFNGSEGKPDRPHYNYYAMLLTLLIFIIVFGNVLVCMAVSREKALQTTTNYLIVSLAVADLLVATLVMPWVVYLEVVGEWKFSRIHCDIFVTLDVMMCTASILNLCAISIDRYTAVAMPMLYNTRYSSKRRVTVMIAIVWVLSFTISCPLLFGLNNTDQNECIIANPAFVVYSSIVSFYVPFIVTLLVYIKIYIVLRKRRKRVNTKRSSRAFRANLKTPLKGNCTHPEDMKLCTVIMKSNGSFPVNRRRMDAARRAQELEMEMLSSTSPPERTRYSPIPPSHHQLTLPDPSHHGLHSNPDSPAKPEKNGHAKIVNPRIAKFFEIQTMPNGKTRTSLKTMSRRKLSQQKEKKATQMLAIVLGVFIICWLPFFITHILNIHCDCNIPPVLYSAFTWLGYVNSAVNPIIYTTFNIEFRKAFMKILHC
Description: as §1

[3] = molecular target: T3, brain serotonin 5-HT2 receptor (Mus musculus, UniProt P35363); assay: binding affinity for brain serotonin 5-HT2 receptor
T3 construct: from tissue; host or cells: brain (rodent)
T3 sequence (P35363 whole entry): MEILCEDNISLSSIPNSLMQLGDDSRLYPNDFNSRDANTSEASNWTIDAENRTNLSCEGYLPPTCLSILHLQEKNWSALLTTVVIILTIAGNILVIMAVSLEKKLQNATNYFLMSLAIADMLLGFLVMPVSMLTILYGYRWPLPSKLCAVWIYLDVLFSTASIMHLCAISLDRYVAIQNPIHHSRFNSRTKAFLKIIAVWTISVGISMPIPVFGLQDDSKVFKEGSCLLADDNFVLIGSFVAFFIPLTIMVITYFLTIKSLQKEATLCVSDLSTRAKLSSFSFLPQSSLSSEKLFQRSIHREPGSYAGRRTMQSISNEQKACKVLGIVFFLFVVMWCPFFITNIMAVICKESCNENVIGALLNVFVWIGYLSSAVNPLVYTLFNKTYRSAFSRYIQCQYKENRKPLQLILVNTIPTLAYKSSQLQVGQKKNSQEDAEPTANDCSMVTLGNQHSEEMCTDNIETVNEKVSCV
Description: as §1

T1 sequence (Q61616 whole entry): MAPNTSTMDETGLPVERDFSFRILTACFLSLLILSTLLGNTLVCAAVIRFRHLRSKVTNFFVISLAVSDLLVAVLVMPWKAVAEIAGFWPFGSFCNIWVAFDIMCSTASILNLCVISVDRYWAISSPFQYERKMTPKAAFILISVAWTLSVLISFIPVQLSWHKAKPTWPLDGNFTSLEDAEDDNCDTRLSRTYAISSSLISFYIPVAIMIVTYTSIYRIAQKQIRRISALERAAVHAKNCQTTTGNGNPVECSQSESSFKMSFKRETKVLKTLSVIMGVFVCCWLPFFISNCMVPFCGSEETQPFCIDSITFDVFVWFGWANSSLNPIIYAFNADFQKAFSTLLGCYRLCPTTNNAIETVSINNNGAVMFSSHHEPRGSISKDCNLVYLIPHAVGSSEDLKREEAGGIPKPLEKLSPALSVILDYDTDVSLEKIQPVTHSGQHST

Oc1ccc2c(c1)Sc1ccccc1C(N1CCNCC1)=N2 [Formula I, 11-piperazin-1-yldibenzo[b,f][1,4]thiazepin-7-ol]
Ki [1]: 288 nM
affinity for D2 (in words) [2]: moderate affinity
Ki ([2]; tested as the dihydrochloride salt, read-out: binding affinity for dopamine D2 receptor (K1)): 35 nM
affinity for serotonin (5-HT2) receptors relative to dopamine (D2) receptors in the brain ([3]; as the dihydrochloride salt, 5-HT2 versus D2): higher affinity
Ki ([3]; tested as the dihydrochloride salt, brain receptor, read-out: binding affinity for brain serotonin 5-HT2 receptor (K1)): 6.5 nM
